Experimental data from patent US20140113904A1, “TREATMENT OF CANCER WITH TOR KINASE INHIBITORS” (SIGNAL PHARMACEUTICALS, LLC, priority 2012, published 2014).
pIC50: −log10 of the molar value. Read-outs that look alike come from different tables or passages of the source. Values belong to the molecule of their own block, whether it stands above or below them.

Assays:
Oral bioavailability = experiment: Oral bioavailability; set-up: species or system rodent; conditions: in vivo
pAktS473 [1] = experiment: Tumor pAktS473 after single dose of Compound 6 (PK/PD); format: in vivo, mice; conditions: Mus musculus, 30 mg/kg single dose
pS6 [2] = experiment: Tumor pS6 after single dose of Compound 6 (PK/PD); format: in vivo, mice; conditions: for inhibition at 30 mg/kg: Mus musculus, 30 mg/kg single dose
FMS = FMS (Homo sapiens, UniProt P07333); experiment: FMS concentration-response curve; format: biochemical
[3] = Compound 6 plasma and tumor levels (PK/PD); format: in vivo, mice; conditions: 30 mg/kg single dose, by 24 h
249 kinases = experiment: Single point kinase selectivity assay against 249 kinases; format: biochemical; conditions: 10 μM
PC3 xenograft = format: in vivo
mTOR = mTOR (Homo sapiens, UniProt P42345); experiment: mTOR inhibition (Table 3); format: biochemical; conditions: average of 2 or more experiments
pS6 [4] = experiment: PC3 cellular activity: pS6 (mTORC1) inhibition; format: cell-based; conditions: Homo sapiens, PC-3; average of 2 or more experiments
pAktS473 [5] = experiment: PC3 cellular activity: pAktS473 (mTORC2) inhibition; format: cell-based; conditions: Homo sapiens, PC-3; average of 2 or more experiments; read-out: PC3 Cellular Activity pAkt IC50
[6] = tested on: PC3 prostate cancer cell lines; experiment: PC3 cellular activity: proliferation; conditions: Homo sapiens, PC-3, read-out: PC3 Cellular Activity Prolif IC50
S6RP(S235/S236) = experiment: Phospho-S6RP(S235/S236) in PC3 cell lysates, MSD; format: cell-based, human; conditions: Homo sapiens, PC-3, 1 h, PC3 cells, 1 hour; two values; read-out: IC50 for inhibition of S6RP(S235/S236) phosphorylation
Excerpt: (§1) The direct substrate for TORC1 was 4E-BP 1(T46) and indirect downstream substrate was S6RP(S235/S236). The direct substrate for TORC2 was Akt(S473) and indirect downstream substrates measured were GSK3β(S9) and PRAS40(T246). Additionally, the phosphorylation status of Akt(T308), a phosphorylation site for PDK1 was monitored.
(§2) MSD® biomarker detection assays provide a rapid and convenient method for measuring the total and phosphorylated levels of protein targets within a single small volume sample. These assays are available in both single-plex and multiplex formats. In a single-plex assay, an antibody for a specific protein target is coated on one electrode (or spot) per well. […] MSD Read Buffer that provides the appropriate chemical environment for ECL is added and the plate is read using an MSD SECTOR™ Imager. […] The instrument measures intensity of the emitted light to afford a quantitative measure of the amount of phosphorylated Akt or S6RP present in the sample. […]
(§3) The assay plate was incubated with 150 μL of MSD Blocker A Solution for 1 hour with shaking at room temperature. […] Then 150 μL of 1×MSD Read Buffer T was added to each well. The plate was read on the SECTOR Imager plate reader. The Excel data was transferred to Activity Base and IC50 values were calculated.
(§4) All data was analyzed using XLfit from IDBS. […]

4E-BP1(T46) = experiment: Phospho-4E-BP1(T46) in PC3 cell lysates, Luminex multiplex; format: cell-based, human; conditions: PC3 cells, up to concentrations of 10 μM
Excerpt: as §1
The multiplex Luminex assay format differs from conventional enzyme-linked immunosorbent assay (ELISA) in that the multiplex capture antibody is attached to a polystyrene bead whereas the ELISA capture antibody is attached to the microplate well. The use of the suspension bead-based technology enables the multiplexing capabilities of the Luminex assays. The xMAP® technology uses 5.6 micron polystyrene microspheres, which are internally dyed with red and infrared fluorophores of differing intensities. Each bead is given a unique number, or bead region, allowing differentiation of one bead from another. Beads covalently bound to different specific antibodies can be mixed in the same assay, utilizing a 96-well microplate format. At the completion of the sandwich immunoassay, beads can be read, using the Luminex 100™ or Luminex 200 detection system, in single-file by dual lasers for classification and quantification of each analyte. […]

[7] = Body weight in Compound 1 PC3 xenograft efficacy studies; format: in vivo, SCID mice; conditions: rapamycin 4 mg/kg, 3 weeks, data not shown
Protocol: The BID dose groups were dosed with a 10-hour separation between the morning and evening doses. […] At the end of each study, plasma and/or tumor samples were collected.
Initial body weights were recorded prior to the initiation of treatment using a digital scale. The percent body weight change during the course of the study was calculated using initial body weight measurements. Body weights of each animal were measured twice a week at the same time that tumor measurements were taken. Body weights were measured more frequently if significant decreases were noted during the course of the study.

Akt(S473) = experiment: Phospho-Akt(S473) in PC3 cell lysates, MSD; format: cell-based, human; conditions: PC3 cells, data not shown
Excerpt: as §1, §2, §3, §4

Sequence of FMS (P07333 20-972, species assumed): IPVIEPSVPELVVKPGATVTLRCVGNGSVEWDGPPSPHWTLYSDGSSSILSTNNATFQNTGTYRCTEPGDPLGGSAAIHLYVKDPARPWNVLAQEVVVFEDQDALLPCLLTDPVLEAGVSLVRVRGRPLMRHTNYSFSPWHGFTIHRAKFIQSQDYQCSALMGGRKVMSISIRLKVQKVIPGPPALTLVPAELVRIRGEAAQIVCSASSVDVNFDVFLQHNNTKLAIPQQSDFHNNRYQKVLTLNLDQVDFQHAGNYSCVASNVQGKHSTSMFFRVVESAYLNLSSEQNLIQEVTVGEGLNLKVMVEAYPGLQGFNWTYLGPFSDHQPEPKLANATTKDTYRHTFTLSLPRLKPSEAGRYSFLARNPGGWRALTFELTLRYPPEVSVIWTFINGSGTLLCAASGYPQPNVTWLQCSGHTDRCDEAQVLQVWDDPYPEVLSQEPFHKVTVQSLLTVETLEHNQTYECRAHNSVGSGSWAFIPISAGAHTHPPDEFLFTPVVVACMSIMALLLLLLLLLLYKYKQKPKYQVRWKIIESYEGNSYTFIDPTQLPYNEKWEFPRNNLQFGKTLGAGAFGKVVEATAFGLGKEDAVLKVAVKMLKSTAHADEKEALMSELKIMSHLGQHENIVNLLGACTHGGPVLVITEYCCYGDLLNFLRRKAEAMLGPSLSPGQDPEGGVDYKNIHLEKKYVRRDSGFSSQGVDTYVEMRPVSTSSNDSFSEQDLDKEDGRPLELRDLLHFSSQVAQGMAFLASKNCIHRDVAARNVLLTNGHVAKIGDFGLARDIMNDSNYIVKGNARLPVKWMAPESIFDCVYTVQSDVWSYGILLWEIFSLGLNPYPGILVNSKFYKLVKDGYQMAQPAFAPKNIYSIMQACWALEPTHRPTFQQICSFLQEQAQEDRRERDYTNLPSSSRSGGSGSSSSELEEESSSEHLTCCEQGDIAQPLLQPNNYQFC

Compound: CC(C)(O)c1ccc(-c2cnc3c(n2)N(CC2CCOCC2)CC(=O)N3)cn1 [Compound 6]
oral bioavailability (Oral bioavailability): excellent oral bioavailablity
inhibition at 30 mg/kg (pAktS473 [1]; 2-8 h): 53 to 77%
inhibition at 30 mg/kg (pAktS473 [1]; 24 h): 28%
biomarker (pS6, pAktS473) inhibition in tumor (pS6 [2]; 100 mg/kg single dose, through 24 hours): full biomarker inhibition
inhibition at 30 mg/kg (pS6 [2]; 2-8 h): 87 to 93%
inhibition at 30 mg/kg (pS6 [2]; 24 h): 43%
pIC50 (FMS): 5.57
plasma and tumor level of compound [3]: almost completely cleared
kinases other than mTOR inhibited >80% (249 kinases): only one kinase other than mTOR was inhibited >80%
tumor volume inhibition compared to vehicle control (PC3 xenograft; 10 mg/kg oral once daily): 18%
tumor volume inhibition compared to vehicle control (PC3 xenograft; 25 mg/kg oral once daily): 63%
tumor volume inhibition compared to vehicle control (PC3 xenograft; 50 mg/kg oral once daily): 84%
tolerability (PC3 xenograft; all dose levels and schedules, 3 weeks of treatment): well tolerated
PC3 tumor growth (PC3 xenograft; oral, once or twice daily or every second day): significantly inhibited PC3 tumor growth

oral bioavailability (Oral bioavailability): poor oral bioavailability
pIC50 (mTOR): 8.70
pIC50 (pS6 [4]): 7.40
pIC50 (pAktS473 [5]): 7.74
pIC50 [6]: 6.65
Compound: O=c1[nH]c2ncc(-c3ccc(-c4nc[nH]n4)cc3)nc2n1CCC1CCOCC1 [Compound 3]

Compound: O=C1CN(CCC2CCOCC2)c2nc(-c3ccc(-c4nc[nH]n4)cc3)cnc2N1 [Compound 4]
oral bioavailability (Oral bioavailability): poor oral bioavailability
pIC50 [6]: 6.83

pIC50 (mTOR): 6.75
pIC50 (pS6 [4]): 5.62
pIC50 (pAktS473 [5]): 5.59
pIC50 [6]: 5.38
Compound: CC(C)(O)c1ccc(-c2cnc3[nH]c(=O)n(CC4CCOCC4)c3n2)cn1 [Compound 5]

pIC50 (S6RP(S235/S236)): 10.72
Compound: CO[C@H]1C[C@@H]2CC[C@@H](C)[C@@](O)(O2)C(=O)C(=O)N2CCCC[C@H]2C(=O)O[C@H]([C@H](C)C[C@@H]2CC[C@@H](O)[C@H](OC)C2)CC(=O)[C@H](C)/C=C(\C)[C@@H](O)[C@@H](OC)C(=O)[C@H](C)C[C@H](C)/C=C/C=C/C=C/1C [rapamycin, reference compound]
inhibition of 4E-BP1(T46) phosphorylation (4E-BP1(T46)): not inhibited
change in body weight [7]: No significant change
inhibition of Akt(S473) phosphorylation (Akt(S473)): did not inhibit
